This is an account of results in patent publication US20230322715A1, “BROAD SPECTRUM ANTI-CANCER COMPOUNDS” (The Regents of the University of California, priority 2019, published 2023).

Structures are written as SMILES. “And” between values parts separate entries of the source, which are not always exact repeats. Equal values may be shown once. Read-outs that look alike come from different tables or passages of the source.

The subject of series [1] is cancer cells by cancer type. The settings on record: read-out: EC50 of Chemo SOC, cited from earlier work.
The target of a further series is FTO (Homo sapiens (Human), UniProt Q9C0B1). Put plainly: Fluorescence enzymatic inhibition assay (m6A7-Broccoli RNA / DFHBI-1T) against FTO. The settings on record: for IC50: m6A7-Broccoli fluorescence assay, 0.250 μM FTO, inhibitor up to 40 μM, triplicate, read-out: Enzymatic IC50 FTO; for precipitation in assay buffer: dose response could not be determined; for selectivity between FTO and ALKBH5: comparison of enzymatic IC50 values. It counts as biochemical. How it is done: In order to determine their efficacy as FTO inhibitors, the compounds were screened by a fluorescence enzymatic inhibition assay developed previously by the Jaffrey lab.^44 Briefly, a nonfluorescent methylated RNA substrate termed “m6A7-Broccoli” is incubated with FTO in the presence of 2-oxoglutarate (300 μM), (NH4)2Fe(SO4)2·6H2O (300 μM), and L-ascorbate (2 mM) for 2 hours at room temperature in reaction buffer (50 mM NaHEPES, pH 6).
(§1) Inhibitors were added in concentrations ranging from 0.008-40 μM; all inhibitors were dissolved in DMSO and added to a final concentration of 0.2% DMSO. […] After incubation at room temperature for 2 hours, the plates were left at 4° C. overnight (16 hours) to allow DFHBI-1T to bind to A7-Broccoli RNA. […] Sigmoidal dose-response curves were fitted in GraphPad Prism 6. All assays were performed in triplicate, with additional repetitions added as necessary.

A further series deals with ALKBH5 (Homo sapiens (Human), UniProt Q6P6C2). As to the kind of experiment: Fluorescence enzymatic inhibition assay (m6A7-Broccoli RNA / DFHBI-1T) against ALKBH5. In kind it is biochemical. The settings on record: for IC50: m6A7-Broccoli fluorescence assay, 0.250 μM ALKBH5, read-out: Enzymatic IC50 ALKBH5. How it is done: as §1
A further series addresses YTHDF1 (Homo sapiens (Human), UniProt Q9BYJ9). As to the kind of experiment: In vitro FRET assay for binding affinities of YTH inhibitors, YTHDF1. An excerpt: (§2) FIG. 8-2 depicts possible design and synthesis of compound libraries. In Vitro FRET assay development could yield a high throughput FRET assay to determine binding affinities for potential YHT inhibitors against YTHDF1, YTHDF2, YTHDF3, or other similar proteins.

The next series has as its target YTHDF2 (Homo sapiens (Human), UniProt Q9Y5A9). As to the kind of experiment: In vitro FRET assay for binding affinities of YTH inhibitors, YTHDF2.
Excerpt: as §2

Setting [2] is: Ki values for YTH library against YTHDF2, read-out: Ki.

By EC50 is commonly meant the concentration at which the effect is half-maximal. A word on the IC50: it is the concentration at which inhibition is half-maximal. As a reminder, the melting point is the temperature of the solid-liquid transition. The Ki is a measure of affinity in units of concentration, obtained from inhibition or displacement.

ALKBH5, sequence (Q6P6C2 whole entry): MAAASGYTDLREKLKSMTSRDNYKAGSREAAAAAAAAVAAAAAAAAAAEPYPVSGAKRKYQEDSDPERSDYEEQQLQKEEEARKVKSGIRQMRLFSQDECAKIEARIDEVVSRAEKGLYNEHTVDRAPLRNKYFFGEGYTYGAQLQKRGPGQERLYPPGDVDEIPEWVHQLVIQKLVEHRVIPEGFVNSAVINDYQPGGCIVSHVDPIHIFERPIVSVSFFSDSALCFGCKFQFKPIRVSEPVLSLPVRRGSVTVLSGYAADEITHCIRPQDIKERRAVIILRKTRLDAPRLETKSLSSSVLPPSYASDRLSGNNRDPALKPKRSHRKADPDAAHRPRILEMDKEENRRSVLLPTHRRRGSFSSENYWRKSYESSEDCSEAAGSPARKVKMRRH
YTHDF2, sequence (Q9Y5A9 whole entry): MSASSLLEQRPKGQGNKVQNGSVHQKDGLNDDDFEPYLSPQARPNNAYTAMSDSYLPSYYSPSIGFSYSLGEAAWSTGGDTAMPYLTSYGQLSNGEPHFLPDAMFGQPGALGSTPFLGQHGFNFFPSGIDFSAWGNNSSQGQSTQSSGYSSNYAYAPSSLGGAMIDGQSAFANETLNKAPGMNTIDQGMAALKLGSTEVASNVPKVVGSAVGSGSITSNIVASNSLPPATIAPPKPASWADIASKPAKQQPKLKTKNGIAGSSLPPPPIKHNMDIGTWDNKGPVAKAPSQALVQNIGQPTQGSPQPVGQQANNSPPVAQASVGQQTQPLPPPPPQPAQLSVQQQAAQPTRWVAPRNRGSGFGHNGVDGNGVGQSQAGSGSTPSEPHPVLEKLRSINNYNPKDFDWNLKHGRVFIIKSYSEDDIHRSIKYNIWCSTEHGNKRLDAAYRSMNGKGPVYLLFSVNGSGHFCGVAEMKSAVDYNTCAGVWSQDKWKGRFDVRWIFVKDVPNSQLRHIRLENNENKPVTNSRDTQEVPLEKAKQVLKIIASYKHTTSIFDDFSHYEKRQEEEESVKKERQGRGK
FTO, sequence (Q9C0B1 whole entry): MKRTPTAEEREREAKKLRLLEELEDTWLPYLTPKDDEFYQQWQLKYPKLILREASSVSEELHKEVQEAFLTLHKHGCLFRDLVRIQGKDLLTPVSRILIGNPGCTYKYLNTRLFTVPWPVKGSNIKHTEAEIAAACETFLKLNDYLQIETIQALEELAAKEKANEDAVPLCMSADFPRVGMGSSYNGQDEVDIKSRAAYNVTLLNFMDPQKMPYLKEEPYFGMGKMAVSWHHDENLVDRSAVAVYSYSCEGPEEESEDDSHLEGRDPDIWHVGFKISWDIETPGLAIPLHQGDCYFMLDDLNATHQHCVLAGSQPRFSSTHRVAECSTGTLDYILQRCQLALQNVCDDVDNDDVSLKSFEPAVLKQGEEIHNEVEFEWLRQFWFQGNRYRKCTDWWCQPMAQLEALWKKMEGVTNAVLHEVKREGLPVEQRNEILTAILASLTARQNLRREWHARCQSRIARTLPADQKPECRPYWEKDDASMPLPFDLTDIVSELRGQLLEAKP
YTHDF1, sequence (Q9BYJ9 whole entry): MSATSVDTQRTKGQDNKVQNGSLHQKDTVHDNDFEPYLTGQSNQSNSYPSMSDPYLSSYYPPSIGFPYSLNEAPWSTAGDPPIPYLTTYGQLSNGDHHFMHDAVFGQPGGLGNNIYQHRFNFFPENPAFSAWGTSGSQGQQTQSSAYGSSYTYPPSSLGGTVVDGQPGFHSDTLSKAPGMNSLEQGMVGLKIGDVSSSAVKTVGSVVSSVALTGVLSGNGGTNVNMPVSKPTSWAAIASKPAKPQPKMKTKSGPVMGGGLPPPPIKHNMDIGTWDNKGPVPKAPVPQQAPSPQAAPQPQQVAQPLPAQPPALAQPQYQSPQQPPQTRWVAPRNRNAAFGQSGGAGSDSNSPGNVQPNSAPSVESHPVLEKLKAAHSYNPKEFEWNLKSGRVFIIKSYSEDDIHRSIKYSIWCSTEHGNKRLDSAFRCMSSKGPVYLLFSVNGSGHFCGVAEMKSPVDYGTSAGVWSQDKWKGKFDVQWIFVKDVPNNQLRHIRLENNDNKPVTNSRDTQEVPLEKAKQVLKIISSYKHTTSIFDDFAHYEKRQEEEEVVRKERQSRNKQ

Regarding `O=c1[nH]cc(F)c(=O)[nH]1` [5FU, fluorouracil], the EC50 is 2000 to 10000 nM in series [1] (Colon) and 28800 nM in series [1] (Gastric).
On to `Nc1ccn([C@@H]2O[C@H](CO)[C@@H](O)[C@@H]2O)c(=O)n1` [Cytarabine], for which, in series [1] (Leukemia), the EC50 is 250 to 3500 nM.
Compound `Oc1ccc2cc(-c3cncnc3)ccc2c1` [FTO-1, 6-(pyrimidin-5-yl)naphthalen-2-ol] gave a melting point of 230 °C. Also, the IC50 at FTO is 41700 nM. At ALKBH5, the “inhibition of ALKBH5 at the highest concentration measured” value (“inhibition of ALKBH5” for short) is “no measurable inhibition” and the IC50 is above 40000 nM.
The compound `COc1ncc(-c2cccc(OCc3ccccc3)c2)cn1` [FTO-3, 5-(3-(benzyloxy)phenyl)-2-methoxypyrimidine] yielded a melting point of 230 °C. In addition, the “precipitation in assay buffer” value at FTO is reported as “significant precipitation”.
Take `COc1ccc2cc(-c3cncnc3)ccc2c1` [FTO-5, 5-(6-methoxynaphthalen-2-yl)pyrimidine]: the melting point was determined as 230 °C. At FTO, the “selectivity between FTO and ALKBH5” value was “five-fold or higher”; the IC50 was determined as 13400 ± 2300 nM. Moreover, at ALKBH5, the “inhibition of ALKBH5” value is “no measurable inhibition” and the IC50 was above 40000 nM.
With `COc1ncc(-c2ccc(CO)c(OC)c2)cn1` [FTO-6, (2-methoxy-4-(2-methoxypyrimidin-5-yl)phenyl)methanol], the melting point came out at 230 °C. Besides, at FTO, the “selectivity between FTO and ALKBH5” value is on record as “five-fold or higher”; the IC50 was determined as 13800 ± 2400 nM.
Take `Cc1ccc2cc(-c3cncnc3)ccc2n1` [FTO-7, 2-methyl-6-(pyrimidin-5-yl)quinoline]: the melting point was determined as 230 °C. The IC50 on FTO came out at 29100 nM. At ALKBH5, the “inhibition of ALKBH5” value was “no measurable inhibition” and the IC50 was above 40000 nM.
For the compound `COc1ccc2cc(-c3cnc(OC)nc3)ccc2c1` [FTO-8, 2-methoxy-5-(6-methoxynaphthalen-2-yl)pyrimidine], the melting point worked out at 230 °C. Moreover, the “selectivity between FTO and ALKBH5” value on FTO is reported as “equivalent inhibitors towards both demethylases”. The IC50 on ALKBH5 was 16400 nM.
`Nc1ncc(-c2cccc(Nc3ccccc3)c2)cn1` [FTO-9, 5-(3-(phenylamino)phenyl)pyrimidin-2-amine] returned a melting point of 230 °C. On FTO, the “selectivity between FTO and ALKBH5” value is recorded as “distinct preference towards ALKBH5 over FTO”; the IC50 is > 40000 nM and 43800 nM. Moreover, the IC50 at ALKBH5 turned out to be 5200 nM.
For the compound `Nc1ncc(-c2cccc(OCc3ccccc3)c2)cn1` [FTO-13, 5-(3-(benzyloxy)phenyl)pyrimidin-2-amine], the melting point came to 230 °C. Besides, on FTO, the “selectivity between FTO and ALKBH5” value is “distinct preference towards ALKBH5 over FTO”; the IC50 was 36700 nM. Also, the IC50 at ALKBH5 was 14900 nM.
`Cc1ccc2cc(-c3cnc(N)nc3)ccc2n1` [FTO-14, 5-(2-methylquinolin-6-yl)pyrimidin-2-amine] showed a melting point of 230 °C. For the same compound, the IC50 at FTO was determined as 59600 nM.
In turn, `COCCNc1ncc(-c2ccc3cc(OC)ccc3c2)cn1` [FTO-15, N-(2-methoxyethyl)-5-(6-methoxynaphthalen-2-yl)pyrimidin-2-amine] showed a melting point of 230 °C. Also, the “precipitation in assay buffer” value on FTO is listed as “significant precipitation”.
Regarding `COCCNc1ncc(-c2ccc3cc(O)ccc3c2)cn1` [FTO-16, 6-(2-((2-methoxyethyl)amino)pyrimidin-5-yl)naphthalen-2-ol], the melting point was 230 °C. On FTO, the IC50 worked out at 46500 nM.
On the same counts, the results for `COCCNc1ncc(-c2ccc3ccc(O)cc3c2)cn1` [FTO-17, 7-(2-((2-methoxyethyl)amino)pyrimidin-5-yl)naphthalen-2-ol] are 230 °C and 51900 nM.
`COCCNc1ncc(-c2ccc(OCc3ccccc3)cc2)cn1` [FTO-18, 5-(4-(benzyloxy)phenyl)-N-(2-methoxyethyl)pyrimidin-2-amine] came in with a melting point of 230 °C. Moreover, on ALKBH5, the “inhibition of ALKBH5” value is “no measurable inhibition” and the IC50 is above 40000 nM.
`COCCNc1ncc(-c2ccc3nc(C)ccc3c2)cn1` [FTO-19, N-(2-methoxyethyl)-5-(2-methylquinolin-6-yl)pyrimidin-2-amine] registered a melting point of 230 °C. Moreover, at FTO, the “selectivity between FTO and ALKBH5” value was “equivalent inhibitors towards both demethylases”; the IC50 was 25200 nM. The IC50 at ALKBH5 was determined as 53500 nM.
The matching figures for `COCCNc1ncc(-c2ccc(CO)c(OC)c2)cn1` [FTO-20, (2-methoxy-4-(2-((2-methoxyethyl)amino)pyrimidin-5-yl)phenyl)methanol]: 230 °C, “five-fold or higher”, 17200 ± 2900 nM and 90200 ± 7800 nM.
Regarding `O=C(c1cc(Cc2n[nH]c(=O)c3ccccc23)ccc1F)N1CCN(C(=O)C2CC2)CC1` [Olaparib], the EC50 in series [1] (Breast) was 30000 nM.
For the compound `FC(F)(F)c1ccc(CNc2ccc(CNC3CC3)cn2)cc1` [TR-YTH-07], the Ki on YTHDF1 (read-out: Ki (pM) YTHDF1) came to 162 ± 30 pM; at YTHDF1 (read-out: Ki YTHDF1), 162 ± 30 pM; at YTHDF2 (setting [2]), 77 ± 18 pM; at YTHDF2 (read-out: Ki (pM) YTHDF2), 77 ± 18 pM; at YTHDF2 (read-out: Ki YTHDF2), 77 ± 18 pM.
Turning to `Fc1cccc(F)c1CNc1ccc(CNC2CC2)cn1` [TR-YTH-09], the Ki on YTHDF1 (read-out: Ki (pM) YTHDF1) is 281 ± 9 pM; at YTHDF1 (read-out: Ki YTHDF1), 281 ± 9 pM; at YTHDF2 (setting [2]) it was 172 ± 49 pM; on YTHDF2 (read-out: Ki (pM) YTHDF2) it was 172 ± 49 pM; at YTHDF2 (read-out: Ki YTHDF2), 172 ± 49 pM.
On to `CN(Cc1ccc(C(F)(F)F)cc1)c1ccc(CNC2CC2)cn1` [TR-YTH-10], for which the Ki at YTHDF1 (read-out: Ki (pM) YTHDF1) is 615 ± 107 pM; at YTHDF1 (read-out: Ki YTHDF1), 615 ± 107 pM; on YTHDF2 (setting [2]) it was 106 ± 26 pM; on YTHDF2 (read-out: Ki (pM) YTHDF2) it was 106 ± 26 pM; at YTHDF2 (read-out: Ki YTHDF2) it was 106 ± 26 pM.
`Cc1ccc(Nc2ccc(CNC3CC3)cn2)cc1C` [TR-YTH-12]: the Ki was 1420 ± 375 pM on YTHDF1 (read-out: Ki (pM) YTHDF1); 1420 ± 375 pM on YTHDF1 (read-out: Ki YTHDF1); 850 ± 115 pM at YTHDF2 (setting [2]); 850 ± 115 pM on YTHDF2 (read-out: Ki (pM) YTHDF2); 850 ± 115 pM at YTHDF2 (read-out: Ki YTHDF2).
Consider `Fc1ccnc(Nc2ccc(CNC3CC3)cn2)c1` [TR-YTH-15], for which the Ki on YTHDF1 (read-out: Ki (pM) YTHDF1) worked out at 236 ± 51 pM; on YTHDF1 (read-out: Ki YTHDF1) it was 236 ± 51 pM; at YTHDF2 (setting [2]), 145 ± 33 pM; at YTHDF2 (read-out: Ki (pM) YTHDF2) it was 145 ± 33 pM; on YTHDF2 (read-out: Ki YTHDF2), 145 ± 33 pM.
In the case of `COc1ccc(CNc2ccc(CN(C)C)cn2)cc1` [TR-YTH-16], the Ki on YTHDF1 (read-out: Ki (pM) YTHDF1) was determined as 214 ± 50 pM; on YTHDF1 (read-out: Ki YTHDF1) it was 214 ± 50 pM; at YTHDF2 (setting [2]) it was 179 ± 36 pM; on YTHDF2 (read-out: Ki (pM) YTHDF2) it was 179 ± 36 pM; at YTHDF2 (read-out: Ki YTHDF2), 179 ± 36 pM.
Turning to `CC(Nc1ccc(CN(C)C)cn1)c1ccccc1` (stereo not drawn) [TR-YTH-18], the Ki on YTHDF1 (read-out: Ki (pM) YTHDF1) worked out at 209 ± 27 pM; on YTHDF1 (read-out: Ki YTHDF1), 209 ± 27 pM; at YTHDF2 (setting [2]), 95 ± 13 pM; on YTHDF2 (read-out: Ki (pM) YTHDF2), 95 ± 13 pM; at YTHDF2 (read-out: Ki YTHDF2), 95 ± 13 pM.
As for `CN(C)Cc1ccc(NCc2ccc(F)cc2)nc1` [TR-YTH-19], the Ki came out at 391 ± 66 pM on YTHDF1 (read-out: Ki (pM) YTHDF1); 391 ± 66 pM at YTHDF1 (read-out: Ki YTHDF1); 107 ± 19 pM on YTHDF2 (setting [2]); 107 ± 19 pM at YTHDF2 (read-out: Ki (pM) YTHDF2); 107 ± 19 pM on YTHDF2 (read-out: Ki YTHDF2).
Regarding `N.N.[Cl][Pt][Cl]` [cisplatin], the EC50 in series [1] (Breast) is 5000 nM; in series [1] (Esophagoel), 8000 nM; in series [1] (Gastric) it was 13500 to 25000 nM; in series [1] (Ovarian), 2000 to 40000 nM; in series [1] (Pancreatic), 20000 to 26000 nM.
On to `Nc1ccn([C@@H]2O[C@H](CO)[C@@H](O)C2(F)F)c(=O)n1` [gemcitabine], for which the EC50 in series [1] (Pancreatic) is below 1000 nM.
On to `CS(=O)(=O)CCNCc1ccc(-c2ccc3ncnc(Nc4ccc(OCc5cccc(F)c5)c(Cl)c4)c3c2)o1` [lapatinib], for which, in series [1] (Breast), the EC50 is 137000 nM.
With `O=C1[O][Pt]2([NH][C@@H]3CCCC[C@H]3[NH]2)[O]C1=O` [oxalplatin, oxaliplatin], the EC50 in series [1] (Colon) is 2000 to 20000 nM; in series [1] (Esophagoel), 37000 nM; in series [1] (Pancreatic), 3500 to 10000 nM.
